From US20250120981A1, “MRTX1133 PHARMACEUTICAL COMPOSITIONS” (MIRATI THERAPEUTICS, INC., priority 2023, published 2025)
Where “and” joins values, the source holds several entries; their conditions need not be identical. Identical values can stand only once. Like-named read-outs stand apart in the source and are kept apart here.

Experiment: Pharmacokinetics in humans, MRTX1133 formulation, oral, single and multiple doses
Format: in vivo
Settings: for AUC0-12 Accumulation Ratio, Geo Mean / Cmax Accumulation Ratio, Geo Mean / Peak to Trough Ratio, Geo Mean: geometric mean of subjects
Description: The pharmacokinetics [PK] of the MRTX1133 formulation after oral administration has been evaluated in 25 subjects across 3 escalating dose frequencies under fasting conditions (200 mg twice daily [BID], 400 mg BID, and 800 mg BID), as well as evaluation of 400 mg BID when administered with a low-fat meal (i.e., under fed conditions). The mean (+standard deviation) single-dose and multiple-dose pharmacokinetic profiles of the evaluated doses are presented in FIG. 9 and FIG. 10, respectively. Individual single- and multiple-dose PK profiles can be found in FIG. 11. For all figures, the X-axis represents nominal time of sample collection (hours [h]) and the Y-axis represents plasma concentration (ng/mL). Table 10 lists PK data following the oral administration of a single dose and multiple doses of MRTX1133 formulation by dose level and subject.

[1] = multiple oral doses of 200 mg BID, fasted
[2] = multiple oral doses of 200 mg BID, fasted, individual subjects
[3] = multiple oral doses of 400 mg BID with a low-fat meal
[4] = multiple oral doses of 400 mg BID with a low-fat meal, individual subjects
[5] = multiple oral doses of 400 mg BID, fasted
[6] = multiple oral doses of 400 mg BID, fasted, individual subjects
[7] = multiple oral doses of 800 mg BID, fasted, Geo Mean of subjects

concentration at 0 h (human, plasma, po, 800 mg, single oral dose of 800 mg, fasted, 0 h, individual subjects, read-out: Plasma concentration): 0 ng/mL
concentration at 0.5 h (human, plasma, po, 800 mg, single oral dose of 800 mg, fasted, 0.5 h, mean of subjects, read-out: Plasma concentration, Mean): 235 ng/mL
concentration at 1 h (human, plasma, po, 800 mg, single oral dose of 800 mg, fasted, 1 h, mean of subjects, read-out: Plasma concentration, Mean): 286 ng/mL
concentration at 1.5 h (human, plasma, po, 800 mg, single oral dose of 800 mg, fasted, 1.5 h, mean of subjects, read-out: Plasma concentration, Mean): 151 ng/mL
concentration at 2 h (human, plasma, po, 800 mg, single oral dose of 800 mg, fasted, 2 h, mean of subjects, read-out: Plasma concentration, Mean): 117 ng/mL
concentration at 4 h (human, plasma, po, 800 mg, single oral dose of 800 mg, fasted, 4 h, mean of subjects, read-out: Plasma concentration, Mean): 67.6 ng/mL
concentration at 6 h (human, plasma, po, 800 mg, single oral dose of 800 mg, fasted, 6 h, mean of subjects, read-out: Plasma concentration, Mean): 57.9 ng/mL
concentration at 8 h (human, plasma, po, 800 mg, single oral dose of 800 mg, fasted, 8 h, mean of subjects, read-out: Plasma concentration, Mean): 49.7 ng/mL
concentration at 12 h (human, plasma, po, 800 mg, single oral dose of 800 mg, fasted, 12 h, mean of subjects, read-out: Plasma concentration, Mean): 12.6 ng/mL
concentration at 24 h (human, plasma, po, 800 mg, single oral dose of 800 mg, fasted, 24 h, mean of subjects, read-out: Plasma concentration, Mean): 25.5 ng/mL
AUC(0-t) (human, plasma, po, 800 mg, single oral dose of 800 mg, fasted, Geo Mean of subjects, read-out: AUC0-12): 440 ng·h/mL
AUC0-inf (human, plasma, po, 800 mg, single oral dose of 800 mg, fasted, Geo Mean of subjects, read-out: AUC0-inf): 543 ng·h/mL
AUC(0-t) (human, plasma, po, 800 mg, single oral dose of 800 mg, fasted, Geo Mean of subjects, read-out: AUC0-last): 463 ng·h/mL
Cmax (human, plasma, po, 800 mg, single oral dose of 800 mg, fasted, Geo Mean of subjects, read-out: Cmax): 123 ng/mL
Tmax (human, plasma, po, 800 mg, single oral dose of 800 mg, fasted, Median of subjects, read-out: Tmax): 1.2 h
AUC0-12 Accumulation Ratio, Geo Mean [1]: 0.9
Cmax Accumulation Ratio, Geo Mean [1]: 0.6
Peak to Trough Ratio, Geo Mean [1]: 12.3
AUC0-12 Accumulation Ratio [2]: 1.30 and 0.94 and 0.44 and 1.16
Cmax Accumulation Ratio [2]: 0.73 and 0.71 and 0.85 and 1.26 and 0.14
Peak to Trough Ratio [2]: 52.1 and 2.75 and 78.2 and 24.9 and 1.02
Tlast [2]: 12 h (4×) and 2.0 h
Tmax [2]: 0.5 h
AUC0-12 Accumulation Ratio, Geo Mean [3]: 1.7
Cmax Accumulation Ratio, Geo Mean [3]: 1.9
Peak to Trough Ratio, Geo Mean [3]: 12.9
AUC0-12 Accumulation Ratio [4]: 2.61 and 1.50 and 2.52 and 0.75
Cmax Accumulation Ratio [4]: 4.69 and 2.66 and 1.71 and 0.63
Peak to Trough Ratio [4]: 7.25 and 84.7 and 10.6 and 4.27
Tlast [4]: 12 h
AUC0-12 Accumulation Ratio, Geo Mean [5]: 1.6
Cmax Accumulation Ratio, Geo Mean [5]: 1.3
Peak to Trough Ratio, Geo Mean [5]: 11.1
Tlast [6]: 12 h
Tmax [6]: 6.0 h and 0.5 h (3×)
AUC0-12 Accumulation Ratio [7]: 1.0
Cmax Accumulation Ratio [7]: 0.8
Peak to Trough Ratio [7]: 9.6
SMILES: C#Cc1c(F)ccc2cc(O)cc(-c3ncc4c(N5C[C@H]6CC[C@@H](C5)N6)nc(OC[C@@]56CCCN5C[C@H](F)C6)nc4c3F)c12 [MRTX1133, 4-(4-((1R,5S)-3,8-diazabicyclo[3.2.1]octan-3-yl)-8-fluoro-2-(((2R,7aS)-2-fluorohexahydro-1Hpyrrolizin-7a-yl)methoxy)pyrido[4,3-d]pyrimidin-7-yl)-5-ethynyl-6-fluoronaphthalen-2-ol]
AUC0-12 [2]: 181 ng·h/mL and 84.0 ng·h/mL and 42.9 ng·h/mL and 115 ng·h/mL
AUC0-last [2]: 181 ng·h/mL and 84.0 ng·h/mL and 42.9 ng·h/mL and 115 ng·h/mL and 31.9 ng·h/mL
Cmax [2]: 85.0 ng/mL and 15.0 ng/mL and 49.4 ng/mL and 56.2 ng/mL and 17.1 ng/mL
AUC0-12 [4]: 1,475 ng · h/mL and 457 ng · h/mL and 107 ng · h/mL and 127 ng · h/mL
AUC0-last [4]: 1,475 ng · h/mL and 457 ng · h/mL and 107 ng · h/mL and 127 ng · h/mL
Cmax [4]: 390 ng/mL and 250 ng/mL and 48.2 ng/mL and 23.0 ng/mL
Plasma concentration (multiple oral doses of 400 mg BID, fasted, 0.5 h, individual subjects): 79.1 ng/mL and 58.5 ng/mL and 82.8 ng/mL and 83.0 ng/mL and 29.7 ng/mL and 23.6 ng/mL and 152 ng/mL
Plasma concentration (multiple oral doses of 400 mg BID, fasted, 1 h, individual subjects): 129 ng/mL and 31.5 ng/mL and 61.2 ng/mL and 38.4 ng/mL and 11.5 ng/mL and 44.7 ng/mL and 285 ng/mL
Plasma concentration (multiple oral doses of 400 mg BID, fasted, 1.5 h, individual subjects): 90.2 ng/mL and 28.5 ng/mL and 38.9 ng/mL and 32.3 ng/mL and 15.2 ng/mL and 38.0 ng/mL and 209 ng/mL
Plasma concentration (multiple oral doses of 400 mg BID, fasted, 2 h, individual subjects): 99.0 ng/mL and 27.2 ng/mL and 55.6 ng/mL and 23.4 ng/mL and 21.1 ng/mL and 30.0 ng/mL and 83.1 ng/mL
Plasma concentration (multiple oral doses of 400 mg BID, fasted, 4 h, individual subjects): 82.8 ng/mL and 11.0 ng/mL and 115 ng/mL and 23.8 ng/mL and 5.34 ng/mL and 233 ng/mL and 70.5 ng/mL
Plasma concentration (multiple oral doses of 400 mg BID, fasted, 6 h, individual subjects): 189 ng/mL and 2.51 ng/mL and 45.3 ng/mL and 10.7 ng/mL and 4.38 ng/mL and 148 ng/mL and 43.8 ng/mL
Plasma concentration (multiple oral doses of 400 mg BID, fasted, 8 h, individual subjects): 88.9 ng/mL and 2.27 ng/mL and 33.3 ng/mL and 8.36 ng/mL and 3.68 ng/mL and 110 ng/mL and 35.5 ng/mL
Plasma concentration (multiple oral doses of 400 mg BID, fasted, 12 h, individual subjects): 76.9 ng/mL and 2.76 ng/mL and 31.2 ng/mL and 6.42 ng/mL and 3.71 ng/mL and 42.1 ng/mL and 31.3 ng/mL
AUC0-12 [6]: 1,237 ng · h/mL and 128 ng · h/mL and 640 ng · h/mL and 211 ng · h/mL and 89.4 ng · h/mL and 1,239 ng · h/mL and 821 ng · h/mL
AUC0-12 Accumulation Ratio [6]: 3.02 and 1.35 and 5.02 and 1.40 and 0.76 and 0.73 and 1.41
AUC0-last [6]: 1,237 ng · h/mL and 128 ng · h/mL and 640 ng · h/mL and 211 ng · h/mL and 89.4 ng · h/mL and 1,239 ng · h/mL and 821 ng · h/mL
Cmax [6]: 189 ng/mL and 58.5 ng/mL and 115 ng/mL and 83.0 ng/mL and 29.7 ng/mL and 233 ng/mL and 285 ng/mL
Cmax Accumulation Ratio [6]: 3.04 and 0.94 and 1.73 and 1.17 and 0.80 and 0.83 and 1.52
Peak to Trough Ratio [6]: 3.30 and 101 and 3.47 and 9.10 and 6.32 and 23.7 and 13.4
